Active and inactive are the calls of the source. No cut-off for these calls is given here.
How the values were obtained:
HL-60 = test: Cytotoxicity against human HL60 cells measured after 72 hrs by Celltiter-Glo assay; format: functional, cell-based; details: HL-60, 72 h
[1] = Cytotoxicity against human SPC-A1 cells overexpressing maspin protein measured after 72 hrs by Celltiter-Glo assay; format: functional, cell-based; details: SPCA1, 72 h
U-87 MG = test: Cytotoxicity against human U87 cells measured after 72 hrs by Celltiter-Glo assay; format: functional, cell-based, U-87MG ATCC
NCI-N87 = test: Cytotoxicity against human NCI-N87 cells measured after 72 hrs by Celltiter-Glo assay; format: functional, cell-based; details: NCI-N87, 72 h
A673 = test: Cytotoxicity against human A673 cells measured after 72 hrs by Celltiter-Glo assay; format: functional, cell-based; details: A673, 72 h
MV4-11 = test: Cytotoxicity against human MV4-11 cells measured after 72 hrs by Celltiter-Glo assay; format: functional, cell-based; details: MV4-11, 72 h
K562 [2] = test: Cytotoxicity against human K562 cells measured after 72 hrs by Celltiter-Glo assay; format: functional, cell-based; details: K562, 72 h
A549 [3] = test: Cytotoxicity against human A549 cells measured after 72 hrs by Celltiter-Glo assay; format: functional, cell-based; details: A549, 72 h
BT-474 = test: Cytotoxicity against human BT474 cells measured after 72 hrs by Celltiter-Glo assay; format: functional, cell-based; details: BT-474, 72 h
NCI-H1299 = test: Cytotoxicity against human H1299 cells measured after 72 hrs by Celltiter-Glo assay; format: functional, cell-based; details: NCI-H1299, 72 h
HuCCT-1 = test: Cytotoxicity against human HuCCT1 cells measured after 72 hrs by Celltiter-Glo assay; format: functional, cell-based; details: HuCCT-1, 72 h
B16-F10 = test: Cytotoxicity against mouse B16/F10 cells measured after 72 hrs by Celltiter-Glo assay; format: functional, cell-based; details: B16-F10, 72 h
MDA-MB-468 = test: Cytotoxicity against human MDA-MB-468 cells measured after 72 hrs by Celltiter-Glo assay; format: functional, cell-based; details: MDA-MB-468, 72 h
NCI-H1975 = test: Cytotoxicity against human NCI-H1975 cells harboring EGFR double L858R/T790M mutant measured after 72 hrs by Celltiter-Glo assay; format: functional, cell-based; details: NCI-H1975, 72 h
A-431 = test: Cytotoxicity against human A431 cells measured after 72 hrs by Celltiter-Glo assay; format: functional, cell-based; details: A-431, 72 h
U-251 = test: Cytotoxicity against human U251 cells measured after 72 hrs by Celltiter-Glo assay; format: functional, cell-based; details: U-251, 72 h
HCC1954 = test: Cytotoxicity against human HCC1954 cells measured after 72 hrs by Celltiter-Glo assay; format: functional, cell-based; details: HCC1954, 72 h
MCF7 [4] = test: Cytotoxicity against human MCF7 cells measured after 72 hrs by Celltiter-Glo assay; format: functional, cell-based; details: MCF7, 72 h
MKN-45 = test: Cytotoxicity against human MKN45 cells measured after 72 hrs by Celltiter-Glo assay; format: functional, cell-based; details: MKN-45, 72 h
DU-145 = test: Cytotoxicity against human DU145 cells measured after 72 hrs by Celltiter-Glo assay; format: functional, cell-based; details: DU-145, 72 h
HCT-116 = test: Cytotoxicity against human HCT116 cells measured after 72 hrs by Celltiter-Glo assay; format: functional, cell-based; details: HCT-116, 72 h
143B = test: Cytotoxicity against human 143B cells measured after 72 hrs by Celltiter-Glo assay; format: functional, cell-based
NCI-H2228 = test: Cytotoxicity against human NCI-H2228 cells measured after 72 hrs by Celltiter-Glo assay; format: functional, cell-based; details: NCI-H2228, 72 h
MDA-MB-231 = test: Cytotoxicity against human MDA-MB-231 cells measured after 72 hrs by Celltiter-Glo assay; format: functional, cell-based; details: MDA-MB-231, 72 h
KARPAS-299 = test: Cytotoxicity against human KARPAS299 cells measured after 72 hrs by Celltiter-Glo assay; format: functional, cell-based; details: KARPAS-299, 72 h
Hep 3B2 = test: Cytotoxicity against human Hep3B cells measured after 72 hrs by Celltiter-Glo assay; format: functional, cell-based
L02 = test: Cytotoxicity against human LO2 cells assessed as inhibition of cell growth measured after 72 hrs by MTT assay; format: cell-based; details: L02, 72 h
A549 [5] = test: Cytotoxicity against human A549 cells assessed as inhibition of cell growth measured after 72 hrs by MTT assay; format: functional, cell-based; details: A549, 72 h
K562 [6] = test: Cytotoxicity against human K562 cells assessed as inhibition of cell growth measured after 72 hrs by CCK-8 assay; format: functional, cell-based; details: K562, 72 h
MCF7 [7] = test: Cytotoxicity against human MCF7 cells assessed as inhibition of cell growth measured after 72 hrs by MTT assay; format: functional, cell-based; details: MCF7, 72 h
[8] = Cytotoxicity against human P6C cells assessed as inhibition of cell growth measured after 72 hrs by MTT assay; format: functional, cell-based
HeLa = test: Cytotoxicity against human HeLa cells; format: functional, cell-based

COc1ccc(-c2c3c(c(-c4ccc(OC)cc4)c(O)c2OC)SCC(=O)N3)cc1
IC50 (HL-60): > 100 µM | IC50 [1]: > 100 µM | IC50 (U-87 MG): > 100 µM | IC50 (NCI-N87): > 100 µM | IC50 (A673): > 100 µM | IC50 (MV4-11): > 100 µM | IC50 (K562 [2]): > 100 µM | IC50 (A549 [3]): > 100 µM | IC50 (BT-474): > 100 µM | IC50 (NCI-H1299): > 100 µM | IC50 (HuCCT-1): > 100 µM | IC50 (B16-F10): > 100 µM | IC50 (MDA-MB-468): > 100 µM | IC50 (NCI-H1975): > 100 µM | IC50 (A-431): > 100 µM | IC50 (U-251): > 100 µM | IC50 (HCC1954): > 100 µM | IC50 (MCF7 [4]): > 100 µM | IC50 (MKN-45): > 100 µM | IC50 (DU-145): > 100 µM | IC50 (HCT-116): > 100 µM | IC50 (143B): > 100 µM | IC50 (NCI-H2228): > 100 µM | IC50 (MDA-MB-231): > 100 µM | IC50 (KARPAS-299): > 100 µM | IC50 (Hep 3B2): > 100 µM

COc1ccc(-c2cc(O)c(-c3ccc(OC)cc3)c(OC)c2O)cc1
IC50 (L02): > 40 µM | IC50 (A549 [5]): > 40 µM | IC50 (K562 [6]): > 40 µM | IC50 (MCF7 [7]): 30 µM | IC50 [8]: > 40 µM

COc1ccc(-c2c(OC)c(O)c(-c3ccc(OC)cc3)c3sc(CO)nc23)cc1
IC50 (HL-60): 0.38 µM | IC50 [1]: > 100 µM | IC50 (U-87 MG): > 100 µM | IC50 (NCI-N87): > 100 µM | IC50 (A673): > 100 µM | IC50 (MV4-11): 4 µM | IC50 (K562 [2]): 9 µM | IC50 (A549 [3]): 7.8 µM | IC50 (BT-474): 6 µM | IC50 (NCI-H1299): > 100 µM | IC50 (HuCCT-1): > 100 µM | IC50 (B16-F10): > 100 µM | IC50 (MDA-MB-468): 2.8 µM | IC50 (NCI-H1975): > 100 µM | IC50 (A-431): 4.6 µM | IC50 (U-251): > 100 µM | IC50 (HCC1954): 0.1 µM | IC50 (MCF7 [4]): 18 µM | IC50 (MKN-45): > 100 µM | IC50 (DU-145): > 100 µM | IC50 (HCT-116): > 100 µM | IC50 (143B): 5.5 µM | IC50 (NCI-H2228): 1.7 µM | IC50 (MDA-MB-231): > 100 µM | IC50 (KARPAS-299): > 100 µM | IC50 (Hep 3B2): > 100 µM

COc1cccc2c1C(=O)c1c(O)c3c(c(O)c1C2=O)C[C@@](O)(C(=O)CO)C[C@@H]3O[C@H]1C[C@H](N)[C@H](O)[C@H](C)O1 [DOXORUBICIN]
IC50 [1]: 0.18 µM | IC50 (U-87 MG): 0.11 µM | IC50 (NCI-N87): 0.047 µM | IC50 (A673): 0.1 µM | IC50 (MV4-11): 0.16 µM | IC50 (K562 [2]): 0.021 µM | IC50 (A549 [3]): 0.11 µM | IC50 (BT-474): 1.9 µM | IC50 (NCI-H1299): 0.5 µM | IC50 (HuCCT-1): 0.048 µM | IC50 (B16-F10): 0.016 µM | IC50 (MDA-MB-468): > 100 µM | IC50 (NCI-H1975): 0.087 µM | IC50 (A-431): 0.16 µM | IC50 (U-251): 0.17 µM | IC50 (HCC1954): 0.045 µM | IC50 (MKN-45): 0.19 µM | IC50 (DU-145): 0.051 µM | IC50 (143B): 0.1 µM | IC50 (NCI-H2228): 0.097 µM | IC50 (KARPAS-299): 0.38 µM | IC50 (Hep 3B2): 16 µM | IC50 (L02): 0.7 µM | IC50 (A549 [5]): 0.58 µM | IC50 (K562 [6]): 0.33 µM | IC50 [8]: 0.71 µM

COC1=C(c2ccc(OC)cc2)C(=O)C=C(c2ccc(OC)cc2)C1=O
IC50 (HL-60): 0.17 µM | IC50 [1]: 2 µM | IC50 (U-87 MG): > 100 µM | IC50 (NCI-N87): 1 µM | IC50 (A673): 0.76 µM | IC50 (MV4-11): 0.16 µM | IC50 (K562 [2]): 4.8 µM | IC50 (A549 [3]): 0.48 µM | IC50 (BT-474): 3.6 µM | IC50 (NCI-H1299): 0.72 µM | IC50 (HuCCT-1): 0.2 µM | IC50 (B16-F10): 0.76 µM | IC50 (MDA-MB-468): 1.1 µM | IC50 (NCI-H1975): 3.1 µM | IC50 (A-431): > 100 µM | IC50 (U-251): 4.7 µM | IC50 (HCC1954): 0.48 µM | IC50 (MCF7 [4]): > 100 µM | IC50 (MKN-45): 0.49 µM | IC50 (DU-145): 0.52 µM | IC50 (HCT-116): 1.9 µM | IC50 (143B): 5 µM | IC50 (NCI-H2228): 0.94 µM | IC50 (MDA-MB-231): 2 µM | IC50 (KARPAS-299): > 100 µM | IC50 (Hep 3B2): > 100 µM | Activity (HeLa): Active

COc1ccc(-c2c(OC)c(O)c(-c3ccc(OC)cc3)c3scnc23)cc1
IC50 (L02): 17 µM | IC50 (A549 [5]): 5.1 µM | IC50 (K562 [6]): 0.77 µM | IC50 (MCF7 [7]): 6 µM | IC50 [8]: 9.4 µM

COc1ccc(-c2cc(O)c(-c3ccc(OC)cc3)c(OC)c2OC)cc1
IC50 (HL-60): 5 µM | IC50 [1]: 9.8 µM | IC50 (U-87 MG): > 100 µM | IC50 (NCI-N87): > 100 µM | IC50 (A673): 8.9 µM | IC50 (MV4-11): 0.77 µM | IC50 (K562 [2]): 8.9 µM | IC50 (A549 [3]): 9.7 µM | IC50 (BT-474): > 100 µM | IC50 (NCI-H1299): > 100 µM | IC50 (HuCCT-1): > 100 µM | IC50 (B16-F10): > 100 µM | IC50 (MDA-MB-468): 0.67 µM | IC50 (NCI-H1975): 4.4 µM | IC50 (A-431): > 100 µM | IC50 (U-251): > 100 µM | IC50 (HCC1954): 2 µM | IC50 (MCF7 [4]): 17 µM | IC50 (MKN-45): 12 µM | IC50 (DU-145): 1 µM | IC50 (HCT-116): > 100 µM | IC50 (143B): 7.7 µM | IC50 (NCI-H2228): 5 µM | IC50 (MDA-MB-231): 2 µM | IC50 (KARPAS-299): > 100 µM | IC50 (Hep 3B2): > 100 µM
